# Values joined by “and” are separate entries in the source; they are usually repeats but may differ in a detail not shown here. Identical values can stand only once.
# Tests used:
# Format in all cases: in vivo, mouse
# [1] = Toxicity assessment: weight monitoring and removal criteria
# [2] = Histopathology at necropsy and pathology severity scoring; settings: small tumors; single-cycle study; ~85 d; individual animals
# Clinical chemistry panel = settings: small tumors; single-cycle study, 55.5 MBq; ~85 d
# [3] = medium tumors, single-cycle, 33.3 MBq, ~200 d
# [4] = small tumors, single-cycle study, 55.5 MBq, ~85 d
structure (smiles),measurement,setting,value
Nc1ccc(CC2CN(CC(=O)[O-])CCN(CC(=O)[O-])CCN(CC(=O)[O-])CCN2CC(=O)[O-])cc1.[177Lu+3] (stereo not shown) [^177Lu-DOTA-Bn],animals removed: Discovered deceased,[1]; [3],1/5
same,animals removed: Tumor burden,[1]; [3],4/5
same,animals removed: Weight loss,[1]; [3],0/5
same,animals removed: Discovered deceased,[1]; [4],0/5
same,animals removed: Tumor burden,[1]; [4],0/5
same,animals removed: Weight loss,[1]; [4],0/5
same,"Histopathologic findings, Bone marrow",[2],N
same,"Histopathologic findings, Kidney",[2],N
same,"Histopathologic findings, Liver",[2],N
same,"Histopathologic findings, Spleen",[2],"HH, 3. and N (2×)"
same,ALT,Clinical chemistry panel,34 U/L and 40 U/L and 30 U/L and 45 U/L and 24 U/L
same,BUN,Clinical chemistry panel,22 mg/dL and 21 mg/dL and 23 mg/dL and 33 mg/dL and 38 mg/dL
same,CREA,Clinical chemistry panel,0.20 mg/dL and 0.18 mg/dL and 0.19 mg/dL and 0.30 mg/dL and 0.22 mg/dL

# — US20210017295A1, “BISPECIFIC BINDING AGENTS AND USES THEREOF” (MEMORIAL SLOAN KETTERING CANCER CENTER, priority 2018, published 2021)
